Measurements from PubChem BioAssay (NCI).
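Compound exposure: 48 hours, 5 concentrations, 96-well plates. TGI denotes the concentration required for complete inhibition of growth.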 Where a SMILES comes first, the peptide text is derived from it. Bridges are numbered along the chain shown (N, C = ends). The star is where a group is joined. Cbz = O=C(OCc1ccccc1)*

Key:
Test in all cases: growth of human tumour cells (NCI), 48 h
HCC-2998 colon = test system: HCC-2998 colon
HOP-92 NSCLC = test system: HOP-92 NSCLC
OVCAR-3 ovarian = test system: OVCAR-3 ovarian
DU-145 prostate = test system: DU-145 prostate
EKVX NSCLC = test system: EKVX NSCLC
UACC-62 melanoma = test system: UACC-62 melanoma
A498 renal = test system: A498 renal
MALME-3M melanoma = test system: MALME-3M melanoma
HOP-62 NSCLC = test system: HOP-62 NSCLC
LOX IMVI melanoma = test system: LOX IMVI melanoma
UO-31 renal = test system: UO-31 renal
COLO 205 colon = test system: COLO 205 colon
NCI-H522 lung = test system: NCI-H522 lung
U251 CNS = test system: U251 CNS
IGROV1 ovarian = test system: IGROV1 ovarian
SW-620 colon = test system: SW-620 colon
SF-268 CNS = test system: SF-268 CNS
A549 NSCLC = test system: A549 NSCLC
SK-MEL-5 melanoma = test system: SK-MEL-5 melanoma
SK-MEL-2 melanoma = test system: SK-MEL-2 melanoma

Compound	TGI (HCC-2998 colon)	TGI (HOP-92 NSCLC)	TGI (OVCAR-3 ovarian)	TGI (DU-145 prostate)	TGI (EKVX NSCLC)	TGI (UACC-62 melanoma)	TGI (A498 renal)	TGI (MALME-3M melanoma)	TGI (HOP-62 NSCLC)	TGI (LOX IMVI melanoma)	TGI (UO-31 renal)	TGI (COLO 205 colon)	TGI (NCI-H522 lung)	TGI (U251 CNS)	TGI (IGROV1 ovarian)	TGI (SW-620 colon)	TGI (SF-268 CNS)	TGI (A549 NSCLC)	TGI (SK-MEL-5 melanoma)	TGI (SK-MEL-2 melanoma)
Cc1nc2ccc(F)cc2c2c1CCS2	> 100 µM	> 100 µM	> 100 µM	> 100 µM	> 100 µM	> 100 µM	> 100 µM	> 100 µM	> 100 µM	> 100 µM	> 100 µM	> 100 µM	> 100 µM	> 100 µM	> 100 µM	> 100 µM	> 100 µM	> 100 µM	> 100 µM	
COc1ccc2c(O)c(Oc3ccc(Cl)cc3)c(=O)oc2c1	> 100 µM	> 100 µM	> 100 µM	> 100 µM	> 100 µM		> 100 µM	> 100 µM	> 100 µM	> 100 µM	> 100 µM		> 100 µM	> 100 µM	> 100 µM	> 100 µM	> 100 µM	> 100 µM	> 100 µM	
O=C(O)c1ccccc1CN1CCCC(C(=O)O)C1 (stereo unspecified)		> 100 µM	> 100 µM	> 100 µM	> 100 µM	> 100 µM	> 100 µM	> 100 µM	> 100 µM	> 100 µM	> 100 µM	> 100 µM	> 100 µM	> 100 µM	> 100 µM	> 100 µM	> 100 µM	> 100 µM	> 100 µM	> 100 µM
CNC(=O)C1CCCCNC(=O)CCC(NC(=O)OCc2ccccc2)C(=O)N1 (stereo not drawn) (Cbz-Glu-Lys-NHMe; lactam 1-2; configuration not given here)		> 100 µM	> 100 µM	> 100 µM	> 100 µM	> 100 µM	> 100 µM	> 100 µM	> 100 µM	> 100 µM	> 100 µM	> 100 µM	> 100 µM	> 100 µM	> 100 µM	> 100 µM	> 100 µM	> 100 µM	> 100 µM	> 100 µM
Cc1ccc(S(=O)(=O)n2cc(/C=C/C#N)c(-c3cn(S(=O)(=O)c4ccc(C)cc4)cc3-c3cn(S(=O)(=O)c4ccc(C)cc4)cc3/C=C/C#N)c2)cc1		> 100 µM	> 100 µM	> 100 µM	> 100 µM	> 100 µM	> 100 µM	> 100 µM	> 100 µM	> 100 µM	> 100 µM	> 100 µM	> 100 µM		> 100 µM		> 100 µM		> 100 µM	> 100 µM
C=CCN1C(=O)CC2[C@@H]3CCc4cc(O)ccc4C3CC[C@]2(C)C1=O (stereo partly specified)	> 10 µM	> 10 µM	> 10 µM	> 10 µM	> 10 µM	> 10 µM	> 10 µM	> 10 µM	> 10 µM	> 10 µM	> 10 µM	> 10 µM		> 10 µM	> 10 µM	> 10 µM	> 10 µM	> 10 µM	> 10 µM	> 10 µM
CCCCCCCCCCCCCCCCOCC(COP(=O)(O)OCC1OC(n2cc(CC)c(=O)[nH]c2=O)CC1O)OC(=O)CCCCCCCCCCCCCCC (stereo unspecified)	> 100 µM	> 100 µM	> 100 µM	> 100 µM	> 100 µM	> 100 µM	> 100 µM		> 100 µM	> 100 µM	> 100 µM	> 100 µM	> 100 µM	> 100 µM	> 100 µM	> 100 µM	> 100 µM	> 100 µM		> 100 µM
OCC(O)COCn1cc(Cn2ncc3c(SCc4ccccc4)ncnc32)nn1 (stereo unspecified)	> 100 µM	> 100 µM	> 100 µM	> 100 µM	> 100 µM	> 100 µM	> 100 µM		> 100 µM	> 100 µM	> 100 µM	> 100 µM	73 µM	> 100 µM	> 100 µM	> 100 µM	> 100 µM	> 100 µM	> 100 µM	> 100 µM
COC(=NC(C)C)NC(C)C	> 100 µM	> 100 µM		> 100 µM	> 100 µM	> 100 µM	> 100 µM		> 100 µM	> 100 µM	> 100 µM	> 100 µM		> 100 µM	> 100 µM	> 100 µM	> 100 µM	> 100 µM	> 100 µM	> 100 µM
O=C(O)C(Cc1cc(I)c(O)c(I)c1)C1CCCCC1 (stereo unspecified)	76.9 µM	> 100 µM	38.5 µM	> 100 µM	> 100 µM	> 100 µM	63.7 µM	> 100 µM	> 100 µM	> 100 µM	> 100 µM		> 100 µM	54.6 µM	> 100 µM	> 100 µM	> 100 µM	> 100 µM	53.5 µM	
CCOC(=O)c1nc2ccccc2nc1Oc1cc(OC)cc(OC)c1		> 100 µM	> 100 µM	> 100 µM	> 100 µM	> 100 µM	> 100 µM	> 100 µM	> 100 µM	> 100 µM	> 100 µM	> 100 µM	> 100 µM	> 100 µM	> 100 µM	> 100 µM	> 100 µM	> 100 µM	> 100 µM	> 100 µM
NC(N)=N/N=C/c1c(-c2ccccc2[N+](=O)[O-])nc2sccn12		> 100 µM	> 100 µM	> 100 µM	> 100 µM	32.7 µM	37.7 µM	32.3 µM	69.5 µM	44.4 µM	90.3 µM	29.4 µM	39.8 µM	31.2 µM	> 100 µM	38 µM	> 100 µM	> 100 µM	30.8 µM	30.4 µM
COCCN(C(=O)c1ccccc1)C1CCC2(SCCS2)c2[nH]c3ccccc3c21 (stereo unspecified)	> 100 µM	78 µM	> 100 µM	> 100 µM	> 100 µM		> 100 µM	> 100 µM	> 100 µM	> 100 µM	> 100 µM	> 100 µM	98.8 µM	> 100 µM	> 100 µM	> 100 µM	> 100 µM	68.2 µM	> 100 µM	
CN1CCN(Cn2nc(COc3ccccc3Cl)n(/N=C/c3ccc(-c4ccc(Cl)cc4Cl)o3)c2=S)CC1	33.8 µM	40.6 µM	47.5 µM	38.3 µM	> 100 µM		54.1 µM		45.7 µM	> 100 µM	> 100 µM		56.1 µM	34.6 µM	> 100 µM	34.6 µM	> 100 µM		71.8 µM	45.4 µM
COc1ccc2c(-c3csc(-c4c[nH]c5ccc(Br)cc45)n3)c[nH]c2c1		> 100 µM	> 100 µM	> 100 µM	> 100 µM	> 100 µM	> 100 µM	43.9 µM	> 100 µM	> 100 µM	> 100 µM	> 100 µM	92.6 µM	> 100 µM	> 100 µM	> 100 µM	73.4 µM	> 100 µM	> 100 µM	> 100 µM
O=C1CSCC(=O)Nc2ccccc2N1		> 100 µM	> 100 µM	> 100 µM	> 100 µM	> 100 µM	> 100 µM	> 100 µM	> 100 µM	> 100 µM	> 100 µM	> 100 µM	> 100 µM	> 100 µM	> 100 µM	> 100 µM	> 100 µM	> 100 µM	> 100 µM	> 100 µM
Cc1cccc(Nc2nc3ccccc3nc2NS(=O)(=O)c2ccc(N)cc2)c1	67.6 µM	> 100 µM	> 100 µM	> 100 µM	> 100 µM	> 100 µM		> 100 µM	> 100 µM	> 100 µM	56.6 µM	> 100 µM	> 100 µM	53.8 µM	> 100 µM	> 100 µM	> 100 µM	> 100 µM	> 100 µM	81.5 µM
Clc1ccc(OCC2NC3CCC2CC3)cn1 (stereo unspecified)	32.5 µM	> 100 µM	> 100 µM	> 100 µM	60.6 µM	39.3 µM		39.6 µM	67.1 µM	33.4 µM	6.06 µM	32.4 µM	40.1 µM	30.7 µM	> 100 µM	57.1 µM	> 100 µM	> 100 µM	31.8 µM	33.4 µM
O=C1C=CC2(C=C1)O[C@H](COCc1ccccc1)[C@@H](COCc1ccccc1)O2		2.64 µM	6.32 µM	12.5 µM	3.66 µM	3.99 µM	34.1 µM	6.48 µM	5.12 µM	3.51 µM	2.91 µM	3.35 µM		4.02 µM	3.03 µM	0.765 µM	3.69 µM	39 µM	3.22 µM	3.46 µM
C=C1CC[C@](C)(O)[C@@]2(C)CC[C@H]3C(=C(C)C)C(=O)C[C@]3(C)C[C@H]12	> 50 µM	> 50 µM	> 50 µM	> 50 µM	> 50 µM	> 50 µM	> 50 µM		> 50 µM	28.4 µM	> 50 µM	> 50 µM	> 50 µM	> 50 µM	> 50 µM	> 50 µM	> 50 µM	> 50 µM	> 50 µM	> 50 µM
